These results are taken from ChEMBL document CHEMBL1134705, “Synthesis and antimicrobial activity of new 3 alpha-hydroxy-23,24-bisnorcholane polyamine carbamates” (2001).

The test system of test [1] is Staphylococcus aureus. Nature of the test: Evaluated for its in vitro antimicrobial activity against Staphylococcus aureus (6538p). Format: functional.
Test [2] has as its system Pseudomonas aeruginosa. Nature of the test: Evaluated for its antimicrobial activity against Pseudomonas aeruginosa (27853). Format: functional.
For test [3], the system named is Salmonella typhimurium. Put plainly: Evaluated for its antimicrobial activity against Salmonella Typhimurium (14028). Type of test: functional, Salmonella enterica subsp. enterica serovar Typhimurium. Particulars: Salmonella enterica.
In test [4] the test system is Escherichia coli. Put plainly: Evaluated for its antimicrobial activity against Escherichia coli (25922). Format: functional.
The nature of test [5]: In vitro minimal hemolytic activity was determined. Type of test: functional.
Test [6] concerns Micrococcus luteus. Put plainly: Evaluated for its antimicrobial activity against Micrococcus luteus (9341). Type of test: functional.
A short description of test [7]: Evaluated for its in vitro antimicrobial activity against Staphylococcus equisimilis (6580C). Type of test: functional.
Test [8] relates to Proteus mirabilis. Put plainly: Evaluated for its antimicrobial activity against Proteus mirabilis (25933). Format: functional.
For test [9], the system named is Bacillus subtilis. Nature of the test: Evaluated for its in vitro antimicrobial activity against Bacillus subtilis (6633). Format: functional.
Test [10] concerns Serratia marcescens. Put plainly: Evaluated for its antimicrobial activity against Serratia marcescens (27117). Type of test: functional.
Test [11] has as its system Klebsiella pneumoniae. Nature of the test: Evaluated for its antimicrobial activity against Klebsiella pneumoniae (10031). Format: functional.

≈ marks a conversion by molar mass, not a printed value.

Regarding `C[C@H](COC(=O)NCCCNCCCCN)[C@H]1CC[C@H]2[C@@H]3CC[C@@H]4C[C@H](O)CC[C@]4(C)[C@H]3CC[C@]12C`, the MIC was 0.78 µg/mL (≈ 1.54 µM) in test [1]; > 100 µg/mL in test [2]; 12.5 µg/mL (≈ 24.7 µM) in test [3]; 25 µg/mL (≈ 49.4 µM) in [4]; 1.56 µg/mL (≈ 3.08 µM) in test [6]; 3.13 µg/mL (≈ 6.19 µM) in [7]. In addition, the MIC in test [8] was > 100 µg/mL; in test [9] it was 3.13 µg/mL (≈ 6.19 µM); in test [10] it was > 100 µg/mL; in [11], 3.13 µg/mL (≈ 6.19 µM). The molecule further showed an MHC in test [5] of 25 µg/mL.
For the molecule `C[C@H](COC(=O)NCCCNCCCCN)[C@H]1CC[C@H]2[C@@H]3CC[C@H]4C[C@H](O)CC[C@]4(C)[C@H]3CC[C@]12C`, the MIC is 3.13 µg/mL (≈ 6.19 µM) in test [1]; > 100 µg/mL in test [2]; 12.5 µg/mL (≈ 24.7 µM) in [3]; > 100 µg/mL in test [4]; 3.13 µg/mL (≈ 6.19 µM) in test [6]; 12.5 µg/mL (≈ 24.7 µM) in [7]. Also, the MIC in [8] was > 100 µg/mL; in [9], 6.25 µg/mL (≈ 12.4 µM); in [10] it was > 100 µg/mL; in test [11], 1.56 µg/mL (≈ 3.08 µM). In test [5], the MHC is 25 µg/mL.
For `C[C@H](COC(=O)NCCCNCCCCN)[C@H]1CC[C@H]2[C@@H]3[C@H](F)C[C@H]4C[C@H](O)CC[C@]4(C)[C@H]3CC[C@]12C`, the MIC was 3.13 µg/mL (≈ 5.98 µM) in [1]; 12.5 µg/mL (≈ 23.9 µM) in test [2]; > 100 µg/mL in test [3]; 12.5 µg/mL (≈ 23.9 µM) in test [4]; 3.13 µg/mL (≈ 5.98 µM) in [6]; 6.25 µg/mL (≈ 11.9 µM) in test [7]. The MIC was > 100 µg/mL in test [8], 3.13 µg/mL (≈ 5.98 µM) in test [9], > 100 µg/mL in test [10] and 12.5 µg/mL (≈ 23.9 µM) in test [11]. The molecule further had an MHC in [5] of 50 µg/mL.
As for `CC(C)[C@@H](CC[C@@H](C)[C@H]1CC[C@H]2[C@@H]3[C@H](O)C[C@H]4C[C@@H](NCCCNCCCCN)CC[C@]4(C)[C@H]3CC[C@]12C)OS(=O)(=O)O` [SQUALAMINE], the MIC is 6.25 µg/mL (≈ 9.95 µM) in test [1]; > 100 µg/mL in [2]; > 100 µg/mL in test [3]; > 100 µg/mL in test [4]; 3.13 µg/mL (≈ 4.98 µM) in test [6]; 3.13 µg/mL (≈ 4.98 µM) in [7]. Further, the MIC in [8] is > 100 µg/mL; in test [9], 3.13 µg/mL (≈ 4.98 µM); in [10], > 100 µg/mL; in test [11] it was 12.5 µg/mL (≈ 19.9 µM).
On to `C[C@H](COC(=O)NCCCNCCCCN)[C@H]1CC[C@H]2[C@@H]3[C@H](O)C[C@H]4C[C@H](O)CC[C@]4(C)[C@H]3CC[C@]12C`, for which the MIC in [1] is 3.13 µg/mL (≈ 6 µM); in test [2] it was 25 µg/mL (≈ 47.9 µM); in test [3] it was > 100 µg/mL; in test [4] it was 50 µg/mL (≈ 95.8 µM); in test [6] it was 3.13 µg/mL (≈ 6 µM); in test [7] it was 12.5 µg/mL (≈ 24 µM). Besides, the MIC was > 100 µg/mL in test [8], 6.25 µg/mL (≈ 12 µM) in test [9], > 100 µg/mL in test [10] and > 100 µg/mL in test [11]. The MHC in test [5] was 100 µg/mL.
With `C[C@H](COC(=O)NCCCNCCCCNCCC[N+](C)(C)C)[C@H]1CC[C@H]2[C@@H]3CC[C@@H]4C[C@H](O)CC[C@]4(C)[C@H]3CC[C@]12C`, the MIC was determined as 0.78 µg/mL in test [1]; 3.13 µg/mL in [2]; 12.5 µg/mL in test [3]; 12.5 µg/mL in [4]; 1.56 µg/mL in test [6]; 1.56 µg/mL in test [7]. For the same molecule, the MIC in test [8] is > 100 µg/mL; in test [9] it was 1.56 µg/mL; in test [10], > 100 µg/mL; in test [11], > 100 µg/mL. For the same molecule, the MHC in [5] came to 25 µg/mL.
Consider `C[C@H](COC(=O)NCCCNCCCCNCCC[N+](C)(C)C)[C@H]1CC[C@H]2[C@@H]3CC[C@H]4C[C@H](O)CC[C@]4(C)[C@H]3CC[C@]12C`, for which the MIC was 1.56 µg/mL in test [1]; 25 µg/mL in [2]; > 100 µg/mL in test [3]; 6.25 µg/mL in test [4]; 3.13 µg/mL in [6]; 1.56 µg/mL in [7]. The MIC in test [8] was > 100 µg/mL; in test [9] it was 1.56 µg/mL; in test [10] it was > 100 µg/mL; in test [11], 6.25 µg/mL. The molecule also came in with an MHC in test [5] of 25 µg/mL.
